We go through two substances from patent publication US20200023080A1, “COMPOSITIONS AND METHOD FOR THE TREATMENT AND DETECTION OF COLON CANCER” (priority 2015, published 2020).

One assay concerns the target GC-C receptor (Homo sapiens, UniProt P25092). The following applies: cited from earlier work.
For assay [1], the system named is cGMP production in T84 cells. Description: T84 cGMP bioassay. Type of assay: cell-based, Human. Conditions: FIG. 6.
The test system of assay [2] is colonic adenomas in Apc^+/Min-FCCC mice. The experiment in a line: Ex-vivo imaging of excised colons incubated with probe (IVIS Spectrum). Conditions: 0.1 μM probe; for signal / ability to detect polyps in older mice: 4 and 6 month old mice. How it is done:
Ex-vivo and in vivo studies have been performed to evaluate the specificity of the IR680-SP-333 probe for colonic adenomas in Apc^+/Min-FCCC mice. IR680-SP-333 was prepared in DMEM/F-12 media containing 20 mM sodium phosphate buffer and 3% BSA, pH6; the same media used for in vitro experiments. Based on data from an initial pilot study, incubation of tissue with 0.1 μM IR680-SP-333 for 30 min at 37° C. was selected as the optimal condition for ex-vivo studies. Epifluorescence images were acquired as follows: excitation wavelength=640 nm, detection wavelength=700 nm, exposure time=auto-3 min, F-stop=1, binning=1 (“small” setting), field of view=0.3 cm (setting “C”). […] To eliminate the contribution of the age of mouse to the observed heterogeneity in probe binding, an in depth imaging study was performed in mice of various ages (2, 3, 4, 5 and 6 months). In this ex-vivo study, mice were euthanized and colons excised, opened longitudinally, and washed with PBS. Colon tissues were incubated with 0.1 μM IR680-SP-333 at 37° C. for 30 min. After incubation, the tissues were washed with PBS (4 times) and imaged in the IVIS Spectrum, using the settings described above. Careful review of the resulting images lead to three major conclusions: 1) the binding of the IR680-SP-333 probe to colorectal polyps is size dependent. […] 2) because the signal varied with polyp size, binding was enhanced in mice 2-3 months of age where the majority of colorectal polyps were smaller (≤3 mm in diameter) (FIG. 7). As the mice aged, the colorectal polyps increased in size and the ability of probe to detect the polyps decreased (FIG. 8). […] Because the incidence of colorectal polyps is higher in mice 3 months (70%) vs. 2 months (45%) of age, a decision was made to use mice 10-12 weeks of age for all subsequent in vivo IR680-SP-333 analyses to minimize the number of animal that needed to be screened for tumors. 3) signal of the IR680-SP-333 probe was high at the proximal and distal ends of the colon even in the absence of polyps. Similar nonspecific binding of unknown origin has been observed in previous experiments with independent probes at these same extreme regions.

Assay [3] has as its target T1, GC-C binding sites on T84 cells (Homo sapiens, UniProt P25092).
T1 construct: endogenous in cells; host or cells: T84 human colon carcinoma cells
Description: Binding of IR680-SP-333 probe to suspension of T84 cells. Conditions: 0.5 μM probe, 4° C. for 30 mins, FIG. 4. How it is done: Next, we performed binding of probe to suspension of T84 cells. In this set of experiments, cells cultured for 9 days in T75 flasks were harvested by scraping and suspended in pre-chilled binding media. Different densities of cells were incubated with […] IR680-SP-333 (final concentration 0.5 μM) in pre-chilled binding buffer at 4° C. for 30 mins. The IR680-SP-333 was diluted with unlabeled SP-333 to adjust the final concentration of probe 0.5 μM. This dilution was necessary to saturate the available GC-C binding sites on 40,000 cells.

For assay [4], the target named is T2, GC-C expressed on T84 cells (Homo sapiens, UniProt P25092).
T2 construct: endogenous in cells; host or cells: T84 human colon carcinoma cells
Description: Binding of IR680-SP-333 probe to T84 cell monolayer. The following applies: 4° C. for 1 hour, FIG. 3. How it is done:
Experiments were performed to establish binding conditions to reduce background and to enhance specific binding. These experiments concluded that the age of T84 monolayer should be between 7-9 days after seeding to allow maximum expression of GC-C on the cell surface. Next, we established the optimal binding buffer, incubation time to allow binding of probe to T84 cells and temperature of binding incubation to minimize endocytosis. The optimal conditions for specific binding of probe to T84 cells are briefly described here. Human T84 cells were grown to confluence in 96 black clear bottom plates. Media was aspirated and the plate was blocked with 200 ul/well of blocking buffer (DMEM/F12+150 mM NaCl+20 mM Sodium phosphate dibasic, pH was adjusted to 6.0 with 1N HCl) for 2 hours in cell culture incubator at 37° C.

For assay [5], the system named is colon polyps in Apc^+/Min-FCCC mice. Description: In vivo gavage of probe, imaging of excised colon and histopathology. How it is done: Following the ex-vivo binding studies, an experiment was performed to assess the ability of the probe to remain intact as it passed through the GI tract and bind to colonic lesions. In this in vivo experiment, Apc^+/Min-FCCC mice (10-12 wks of age) were subjected to a colonoscopic examination prior to probe administration, according to a protocol established previously (Hensley, Gastrointestinal Endoscopy group). Mice with confirmed colon polyps were randomized to receive IR680-SP-333 at 0.5 or 0.05 mg/kg body weight by gavage. Prior to probe administration, mice were fasted overnight and provided Pedialyte ad libitum for bowel cleansing. Mice were gavaged with IR680-SP-333 and euthanized at 30, 60, 90 and 120 min post treatment. At the time of euthanasia, the colon was excised, opened its entire length and rinsed with saline. Each colon was then placed on a plastic ruler and imaged in an IVIS Spectrum system using the settings described above for the ex-vivo experiments. Immediately following image acquisition, the entire colon was placed intact on a plastic ruler in 10% normal buffered formalin and areas positive and negative for probe signal were collected for histopathological evaluation. […] Evaluation of additional doses of IR680-SP-333 probe (0.0158 and 0.158 mg/kg body weight) confirmed that gavaging mice with IR680-SP-333 at 0.05 mg/kg body weight and imaging 30 min post treatment yielded the greatest differential in signal between the non-neoplastic and neoplastic colonic mucosa.
Colon tissues with strong signal (tumor) and corresponding background signal (nonneoplastic control) were processed for histopathology evaluation and reviewed bin a blinded manner. […] This heterogeneity made it impossible to standardize the epi-fluorescence scale and classify positive and negative signals based solely on the epi-fluorescence value. […] In FIG. 12 (mouse ID 12201), strong signal is localized to a hyperplastic polyp (HP); an area of high proliferation; providing additional support for the lack of correlation between the intensity of the probe signal and size/type of colonic lesion. […] The probe IR-680-SP-333 may also be useful in detection of colorectal metastasis in liver and other organs.

Positions of bridges follow the written chain, without caps; N, C: chain ends. Non-standard residues stand in square brackets, D forms with d. No end group written: not given here. IRDye‑680LT = infrared dye IRDye-680LT, conjugated via NHS ester

T2 sequence (P25092 24-1073): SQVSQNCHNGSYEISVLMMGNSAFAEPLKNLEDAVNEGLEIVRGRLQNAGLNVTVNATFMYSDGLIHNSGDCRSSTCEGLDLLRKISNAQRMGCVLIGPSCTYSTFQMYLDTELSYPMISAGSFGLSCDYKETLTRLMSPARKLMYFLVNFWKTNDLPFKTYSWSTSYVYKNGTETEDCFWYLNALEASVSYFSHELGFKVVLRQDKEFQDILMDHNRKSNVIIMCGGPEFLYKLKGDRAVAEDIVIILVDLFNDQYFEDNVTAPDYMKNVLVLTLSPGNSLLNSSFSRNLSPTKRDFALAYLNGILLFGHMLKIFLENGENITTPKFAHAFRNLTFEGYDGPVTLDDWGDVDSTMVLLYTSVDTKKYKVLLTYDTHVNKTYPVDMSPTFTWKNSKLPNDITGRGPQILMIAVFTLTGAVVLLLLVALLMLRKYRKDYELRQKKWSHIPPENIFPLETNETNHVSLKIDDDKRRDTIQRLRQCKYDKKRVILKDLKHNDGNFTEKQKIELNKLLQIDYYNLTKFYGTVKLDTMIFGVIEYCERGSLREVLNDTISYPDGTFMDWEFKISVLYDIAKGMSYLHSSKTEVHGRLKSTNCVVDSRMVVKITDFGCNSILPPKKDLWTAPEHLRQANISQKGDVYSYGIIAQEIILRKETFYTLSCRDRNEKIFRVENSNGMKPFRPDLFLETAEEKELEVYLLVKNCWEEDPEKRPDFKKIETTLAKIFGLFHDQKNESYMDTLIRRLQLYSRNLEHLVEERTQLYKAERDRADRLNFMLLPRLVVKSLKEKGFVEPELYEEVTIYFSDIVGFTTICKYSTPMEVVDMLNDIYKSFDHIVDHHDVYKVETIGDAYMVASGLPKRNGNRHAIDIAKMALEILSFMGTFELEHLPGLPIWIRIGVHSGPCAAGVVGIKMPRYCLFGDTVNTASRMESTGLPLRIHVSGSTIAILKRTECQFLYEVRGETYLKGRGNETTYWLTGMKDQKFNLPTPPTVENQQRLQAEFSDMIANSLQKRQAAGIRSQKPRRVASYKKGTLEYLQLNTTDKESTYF
Sequence of GC-C receptor (P25092 24-1073): as above
T1 sequence (P25092 24-1073): as above

Consider “Asn^1-Asp^2-Asp^3-Cys^4-Glu^5-Leu^6-Cys^7-Val^8-Asn^9-Val^10-Ala^11-Cys^12-Thr^13-Gly^14-Cys^15-Leu^16 (NDDCELCVNVACTGCL; disulfide 4-12, 7-15) [Uroguanylin, a physiological ligand of GC-C, a 16 amino acid peptide with two disulfide bonds]”, for which the “affinity for the GC-C receptor” value with GC-C receptor is “nanomolar affinity”.
In the case of “IR680-SP-333: SP-333 labeled at the amine group with IRDye-680LT NHS ester; bioactive infrared fluorescence probe ({IRDye‑680LT}-[dN]DECELCVNVACTGC[dL]; disulfide 4-12, 7-15)”, in assay [1], the “ability to stimulate cGMP production in T84 cells” value is on record as “active” and the “level of cGMP production compared to unconjugated SP-333” value is given as “slightly lower level”. The “signal at the proximal and distal ends of the colon in the absence of polyps” value in assay [2] (30 min) is given as “high”. Also, the “signal / ability to detect polyps in older mice” value in assay [2] (30 min, FIG. 8) is “decreased”. For the same substance, in assay [2] (30 min, FIG. 8, listed as SP-333-IR680), the “signal / ability to detect polyps in older mice” value is given as “weaker than that observed in younger animals”. In addition, in assay [2] (30 min, polyps mostly ≤3 mm, FIG. 7), the “binding in mice 2-3 months of age” value was “enhanced”. Moreover, in assay [2] (30 min at 37° C.), the “binding to colorectal polyps versus surrounding normal colonic mucosa” value is “greater binding to colorectal polyps than to the surrounding normal colonic mucosa” and the “binding to every colorectal polyp” value was “did not bind to every colorectal polyp”. Moreover, the “probe signal by polyp size” value in assay [2] (30 min at 37° C., FIG. 7) is “higher in polyps ≤3 mm in diameter than in those with a diameter >4 mm”. For the same substance, the “binding of probe to cell suspension in the presence of 100-fold excess of SP-333” value in assay [3] was “abolished”. Also, in assay [4], the “binding of probe in the presence of 100-fold excess of unlabeled SP-333” value was “considerably reduced” and the “binding of probe to T84 cells (fluorescence ex680, em715)” value was “specifically bound to GC-C expressed on T84 cells in a dose-dependent manner”. For the same substance, in assay [5] (gavage 0.05 mg/kg body weight, imaged 30 min post treatment, FIG. 9A), the “differential between signal of colorectal polyps and background of adjacent normal colonic mucosa” value was “best differential”. Besides, the “nonspecific signal at proximal and distal ends of colon” value in assay [5] (gavage 0.5 mg/kg body weight, FIG. 9B) is “increased significantly”. The “differential between tumor and normal tissue at higher dose” value in assay [5] (gavage 0.5 mg/kg body weight, FIG. 9B, 0.5 mg/kg) is “failed to improve the difference in signal between neoplastic and nonneoplastic mucosa significantly”. Further, in assay [5] (gavage 0.5 mg/kg body weight, FIG. 9B, listed as SP-333-IR680, 0.5 mg/kg), the “differential between tumor and normal tissue at higher dose” value is “failed to improve the differential between tumor and normal tissue”. Moreover, the “nonspecific binding at longer interval between dosing and imaging” value in assay [5] (gavage, ≥90 min between dosing and imaging, FIG. 9C) was “increase in nonspecific binding”. For the same substance, in assay [5] (histopathology, blinded review), the “correlation of probe signal intensity with tumor size or histological subtype” value was “did not correlate with either tumor size or the histological subtype of lesion”. The “probe signal in hyperplastic polyp (HP)” value in assay [5] (mouse ID 12201, FIG. 12) is listed as “strong signal”. Also, in assay [5] (mouse ID 12276, FIG. 11), the “probe signal in flat/indeterminate adenoma” value is recorded as “weaker signal” and the “probe signal in small gross lesion (1-mm in size)” value was “very strong probe signal”. In assay [5] (mouse ID 12281, FIG. 10), the “probe signal in adenoma” value is on record as “intermediate signal intensity”, the “probe signal in areas of hyperproliferation (HP)” value is recorded as “strongest probe signal” and the “probe signal in micro-adenoma compared to surrounding normal colonic mucosa” value is “slight increase in signal”. In addition, the “background signal in normal colonic mucosa” value in assay [5] (same dose and same post treatment time interval) is “varied between mice receiving the same treatment regimen”.
